In patent US10106556B2, “Heterocyclic compound” (TAKEDA PHARMACEUTICAL COMPANY LIMITED, priority 2015, dated 2018):

Molecular target: T1, His-hMAGL (recombinant polyhistidine tagged human MAGL protein) (Homo sapiens, UniProt Q99685)
T1 construct: made in house; host or cells: E. coli BL21(DE3)
T1 sequence (Q99685 1-303): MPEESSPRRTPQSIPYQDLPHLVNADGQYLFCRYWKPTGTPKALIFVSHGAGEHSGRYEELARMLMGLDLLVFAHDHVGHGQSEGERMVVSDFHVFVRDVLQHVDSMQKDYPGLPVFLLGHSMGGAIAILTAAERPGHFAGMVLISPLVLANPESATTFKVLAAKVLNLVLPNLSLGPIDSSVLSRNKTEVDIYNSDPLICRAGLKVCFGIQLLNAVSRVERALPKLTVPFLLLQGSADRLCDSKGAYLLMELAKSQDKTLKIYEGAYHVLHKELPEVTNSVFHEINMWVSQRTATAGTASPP
Test: Measurement of MAGL inhibitory activity (arachidonic acid production from 2-arachidonylglycerol, RapidFire-mass spectrometry)
Assay type: biochemical
Settings: MAGL inhibitory rate at 10 μM test compound, 60 min preincubation with His-hMAGL, 2-arachidonylglycerol substrate, 10 min reaction at room temperature
In short: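 Inhibition (%) was derived from arachidonic acid levels relative to enzyme-free and compound-free groups. Product was measured by online C4 solid-phase extraction and triple-quadrupole MS in negative SRM mode, corrected by arachidonic acid-d8 (3 μM in the acetonitrile added). Substrate was 2-arachidonylglycerol; enzyme was His-tagged recombinant human MAGL.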

| SMILES | inhibition at 10 µM | % inhibition (10 μM) (10 µM) |
| --- | --- | --- |
| N#Cc1ccc(OCC2CCN(C(=O)c3ccc4c(c3)NC(=O)CO4)CC2)c(Cl)c1 [Example 52, 3-chloro-4-((1-((3-oxo-3,4-dihydro-2H-1,4-benzoxazin-6-yl)carbonyl)piperidin-4-yl)methoxy)benzonitrile] | 102% | – |
| O=C1COc2cc(F)c(C(=O)N3CC(COc4ccc(Cl)cc4-c4cncc(Cl)c4)C3)cc2N1 [Example 201, 6-((3-((4-chloro-2-(5-chloropyridin-3-yl)phenoxy)methyl)azetidin-1-yl)carbonyl)-7-fluoro-2H-1,4-benzoxazin-3(4H)-one] | 101% | – |
| Cn1nccc1-c1cc(Cl)ccc1OCC1CN(C(=O)c2cc3c(cc2F)OCC(=O)N3)C1 [Example 218, 6-((3-((4-chloro-2-(1-methyl-1H-pyrazol-5-yl)phenoxy)methyl)azetidin-1-yl)carbonyl)-7-fluoro-2H-1,4-benzoxazin-3(4H)-one] | 99% | – |
| COc1cc2c(cc1C(=O)N1CC(COc3ccc(F)cc3Cl)C1)NC(=O)CO2 [Example 98, 6-((3-((2-chloro-4-fluorophenoxy)methyl)azetidin-1-yl)carbonyl)-7-methoxy-2H-1,4-benzoxazin-3(4H)-one] | 99% | – |
| Cc1cncc(-c2cc(Cl)ccc2OCC2CN(C(=O)c3cc4c(cc3F)OCC(=O)N4)C2)c1 [Example 202, 6-((3-((4-chloro-2-(5-methylpyridin-3-yl)phenoxy)methyl)azetidin-1-yl)carbonyl)-7-fluoro-2H-1,4-benzoxazin-3(4H)-one] | 100% | – |
| O=C1COc2cc(F)c(C(=O)N3CC(COC4CCC(F)(F)CC4)C3)cc2N1 [Example 282, 6-((3-(((4,4-difluorocyclohexyl)oxy)methyl)azetidin-1-yl)carbonyl)-7-fluoro-2H-1,4-benzoxazin-3(4H)-one] | 99% | – |
| Cc1cccc(-c2cc(Cl)ccc2OCC2CN(C(=O)c3cc4c(cc3F)OCC(=O)N4)C2)n1 [Example 197, 6-((3-((4-chloro-2-(6-methylpyridin-2-yl)phenoxy)methyl)azetidin-1-yl)carbonyl)-7-fluoro-2H-1,4-benzoxazin-3(4H)-one] | 104% | – |
| CS(=O)(=O)c1ccc(COC2CN(C(=O)c3cc4c(cc3F)OCC(=O)N4)C2)cc1 [Example 337, 7-fluoro-6-((3-((4-(methylsulfonyl)benzyl)oxy)azetidin-1-yl)carbonyl)-2H-1,4-benzoxazin-3(4H)-one] | 92% | – |
| O=C1COc2cc(F)c(C(=O)N3CC(COc4ccc(Cl)cc4-c4cncc(F)c4)C3)cc2N1 [Example 200, 6-((3-((4-chloro-2-(5-fluoropyridin-3-yl)phenoxy)methyl)azetidin-1-yl)carbonyl)-7-fluoro-2H-1,4-benzoxazin-3(4H)-one] | 102% | – |
| O=C1COc2cc(F)c(C(=O)N3CCC(COc4ccc5c(c4)CCCC5)CC3)cc2N1 [Example 284, 7-fluoro-6-((4-((5,6,7,8-tetrahydronaphthalen-2-yloxy)methyl)piperidin-1-yl)carbonyl)-2H-1,4-benzoxazin-3(4H)-one] | 96% | – |
| O=C1COc2cc(F)c(C(=O)N3CC(COc4cccc(Cl)c4F)C3)cc2N1 [Example 135, 6-((3-((3-chloro-2-fluorophenoxy)methyl)azetidin-1-yl)carbonyl)-7-fluoro-2H-1,4-benzoxazin-3(4H)-one] | 101% | – |
| O=C1COc2cc(F)c(C(=O)N3CC(COc4ccc(C(F)(F)F)cc4F)C3)cc2N1 [Example 188, 7-fluoro-6-((3-((2-fluoro-4-(trifluoromethyl)phenoxy)methyl)azetidin-1-yl)carbonyl)-2H-1,4-benzoxazin-3(4H)-one] | 97% | – |
| O=C1COc2ccc(C(=O)N3CCC(COc4nc5ccccc5s4)CC3)cc2N1 [Example 62, 6-((4-((1,3-benzothiazol-2-yloxy)methyl)piperidin-1-yl)carbonyl)-2H-1,4-benzoxazin-3(4H)-one] | 86% | – |
| O=C1COc2cc(F)c(C(=O)N3CC(COc4ccc(-c5ccc(F)cn5)cc4F)C3)cc2N1 [Example 228, 7-fluoro-6-((3-((2-fluoro-4-(5-fluoropyridin-2-yl)phenoxy)methyl)azetidin-1-yl)carbonyl)-2H-1,4-benzoxazin-3(4H)-one] | 94% | – |
| O=C1COc2cc(F)c(C(=O)N3CC(COc4ccc(OCC(F)(F)F)cc4)C3)cc2N1 [Example 114, 7-fluoro-6-((3-((4-(2,2,2-trifluoroethoxy)phenoxy)methyl)azetidin-1-yl)carbonyl)-2H-1,4-benzoxazin-3(4H)-one] | 99% | – |
| Cc1cc(Cl)ccc1OCC1CN(C(=O)c2cc3c(cc2F)OCC(=O)N3)C1 [Example 226, 6-((3-((4-chloro-2-methylphenoxy)methyl)azetidin-1-yl)carbonyl)-7-fluoro-2H-1,4-benzoxazin-3(4H)-one] | 101% | – |

| SMILES | inhibition at 10 µM | % inhibition (10 μM) (10 µM) |
| --- | --- | --- |
| O=C1COc2cc(F)c(C(=O)N3CC(COc4noc5ccc(Cl)cc45)C3)cc2N1 [Example 180, 6-((3-(((5-chloro-1,2-benzoxazol-3-yl)oxy)methyl)azetidin-1-yl)carbonyl)-7-fluoro-2H-1,4-benzoxazin-3(4H)-one] | 96% | – |
| O=C1COc2cc(F)c(C(=O)N3CC(COc4ccc(F)c(Cl)c4)C3)cc2N1 [Example 131, 6-((3-((3-chloro-4-fluorophenoxy)methyl)azetidin-1-yl)carbonyl)-7-fluoro-2H-1,4-benzoxazin-3(4H)-one] | 101% | – |
| O=C1COc2ccc(C(=O)N3CCC(COc4ccc5ccccc5c4)CC3)cc2N1 [Example 60, 6-((4-((2-naphthyloxy)methyl)piperidin-1-yl)carbonyl)-2H-1,4-benzoxazin-3(4H)-one] | 92% | – |
| Cc1nccc(-c2ccccn2)c1OCC1CN(C(=O)c2cc3c(cc2F)OCC(=O)N3)C1 [Example 177, 7-fluoro-6-((3-(((2′-methyl-2,4′-bipyridin-3′-yl)oxy)methyl)azetidin-1-yl)carbonyl)-2H-1,4-benzoxazin-3(4H)-one] | 91% | – |
| N#Cc1ccc(OCC2CCN(C(=O)c3cc4c(cc3F)OCC(=O)N4)CC2)c(Cl)c1 [Example 70, 3-chloro-4-((1-((7-fluoro-3-oxo-3,4-dihydro-2H-1,4-benzoxazin-6-yl)carbonyl)piperidin-4-yl)methoxy)benzonitrile] | 100% | – |
| COc1ccccc1-c1ccccc1OCC1CN(C(=O)c2cc3c(cc2F)OCC(=O)N3)C1 [Example 174, 7-fluoro-6-((3-(((2′-methoxybiphenyl-2-yl)oxy)methyl)azetidin-1-yl)carbonyl)-2H-1,4-benzoxazin-3(4H)-one] | 102% | – |
| Cc1ccc(OCC2CN(C(=O)c3cc4c(cc3F)OCC(=O)N4)C2)cc1F [Example 269, 7-fluoro-6-((3-((3-fluoro-4-methylphenoxy)methyl)azetidin-1-yl)carbonyl)-2H-1,4-benzoxazin-3(4H)-one] | 101% | – |
| Cc1nc2cc(OCC3CN(C(=O)c4cc5c(cc4F)OCC(=O)N5)C3)ccc2s1 [Example 151, 7-fluoro-6-((3-(((2-methyl-1,3-benzothiazol-5-yl)oxy)methyl)azetidin-1-yl)carbonyl)-2H-1,4-benzoxazin-3(4H)-one] | 92% | – |
| O=C1COc2cc(F)c(C(=O)N3CC(COc4ccc(C(F)(F)F)cc4Cl)C3)cc2N1 [Example 116, 6-((3-((2-chloro-4-(trifluoromethyl)phenoxy)methyl)azetidin-1-yl)carbonyl)-7-fluoro-2H-1,4-benzoxazin-3(4H)-one] | 103% | – |
| CC(Oc1cc(F)cc(F)c1)C1CN(C(=O)c2cc3c(cc2F)OCC(=O)N3)C1 (centres unmarked) [Example 314, 6-((3-(1-(3,5-difluorophenoxy)ethyl)azetidin-1-yl)carbonyl)-7-fluoro-2H-1,4-benzoxazin-3(4H)-one] | – | 98% |
| O=C1COc2cc(F)c(C(=O)N3CC(COc4ccc5ncccc5c4)C3)cc2N1 [Example 170, 7-fluoro-6-((3-((quinolin-6-yloxy)methyl)azetidin-1-yl)carbonyl)-2H-1,4-benzoxazin-3(4H)-one] | 104% | – |
| O=C1COc2cc(F)c(C(=O)N3CCC(COC4CCC(F)(F)CC4)CC3)cc2N1 [Example 95, 6-((4-(((4,4-difluorocyclohexyl)oxy)methyl)piperidin-1-yl)carbonyl)-7-fluoro-2H-1,4-benzoxazin-3(4H)-one] | 97% | – |
| O=C1COc2cc(F)c(C(=O)N3CC(COc4ccc5c(c4)OCC5)C3)cc2N1 [Example 273, 6-((3-((2,3-dihydro-1-benzofuran-6-yloxy)methyl)azetidin-1-yl)carbonyl)-7-fluoro-2H-1,4-benzoxazin-3(4H)-one] | 101% | – |
| CC(C)(Oc1ccc(F)cc1F)C1CN(C(=O)c2cc3c(cc2F)OCC(=O)N3)C1 [Example 308, 6-((3-(2-(2,4-difluorophenoxy)propan-2-yl)azetidin-1-yl)carbonyl)-7-fluoro-2H-1,4-benzoxazin-3 (4H)-one] | 104% | – |
| O=C1COc2cc(F)c(C(=O)N3CC(COc4ccc(-c5ccccc5)cc4)C3)cc2N1 [Example 108, 6-((3-((biphenyl-4-yloxy)methyl)azetidin-1-yl)carbonyl)-7-fluoro-2H-1,4-benzoxazin-3(4H)-one] | 99% | – |
| Cc1ccc(OCC2CN(C(=O)c3cc4c(cc3F)OCC(=O)N4)C2)c(F)c1 [Example 164, 7-fluoro-6-((3-((2-fluoro-4-methylphenoxy)methyl)azetidin-1-yl)carbonyl)-2H-1,4-benzoxazin-3(4H)-one] | 102% | – |
